In patent US9493466B2, “Treatment of cancer with TOR kinase inhibitors” (Signal Pharmaceuticals, LLC, priority 2011, dated 2016):

Tests used:
Experiment in all cases: Apoptosis assay for NHL lines (Caspase 3/7-Glo)
Type in all cases: cell-based
[1] = system: Granta-519; conditions: Granta-519, NHL MCL, 24 hours, n = 1
Method: (§1) Apoptosis Assay for NHL Lines. Prior to testing, cells were grown and expanded in culture flasks to provide sufficient amounts of starting material. Cells were then diluted to their desired densities and added directly to compound-spotted 384-well plates. Cells were allowed to grow for 24 hours in 5% CO2 at 37° C. The apoptotic response was assessed by quantifying the activities of caspase 3 and caspase 7 (Caspase 3/7-Glo) in treated cells and control cells at the 24-hour time point. All data was normalized and represented as a value relative to the DMSO-treated cells. Results were then expressed as CalX, which is the minimum compound concentration required to double the levels of caspase 3/7 relative to those of the DMSO-treated cells during their treatment period.

[2] = system: HL-60; conditions: HL-60, Leukemia M-AML, 24 hours, n = 1
Method: as §1

[3] = system: JEKO-1; conditions: JEKO-1, NHL MCL, 24 hours, n = 1
Method: as §1

[4] = system: KARPAS-1106P; conditions: NHL DLBCL, 24 hours, n = 1
Method: as §1

[5] = system: KARPAS-299; conditions: KARPAS-299, ALCL T-cell, 24 hours, n = 1
Method: as §1

[6] = system: KARPAS-422; conditions: KARPAS-422, NHL DLBCL, 24 hours, n = 1
Method: as §1

[7] = system: MOLM-13; conditions: MOLM-13, Leukemia M-AML, 24 hours, n = 1
Method: as §1

[8] = system: NU-DHL-1; conditions: NU-DHL-1, NHL DLBCL, 24 hours, n = 1
Method: as §1

[9] = system: OCI-LY-10; conditions: OCI-LY-10, NHL DLBCL, 24 hours, n = 1
Method: as §1

[10] = system: OCI-LY-19; conditions: OCI-LY-19, NHL DLBCL, 24 hours, n = 1
Method: as §1

[11] = system: SU-DHL-16; conditions: SU-DHL-16, NHL DLBCL, 24 hours, n = 1
Method: as §1

[12] = system: SU-DHL-1; conditions: SU-DHL-1, ALCL T-cell, 24 hours, n = 1
Method: as §1

[13] = system: SU-DHL-4; conditions: SU-DHL-4, NHL DLBCL, 24 hours, n = 1
Method: as §1

[14] = system: SU-DHL-5; conditions: SU-DHL-5, NHL DLBCL, 24 hours, n = 1
Method: as §1

[15] = system: SU-DHL-6; conditions: SU-DHL-6, NHL DLBCL, 24 hours, n = 1
Method: as §1

[16] = system: SU-DHL-8; conditions: SU-DHL-8, NHL DLBCL, 24 hours, n = 1
Method: as §1

[17] = system: Toledo; conditions: NHL DLBCL, 24 hours, n = 1
Method: as §1

[18] = system: U-2932; conditions: U-2932, NHL DLBCL, 24 hours, n = 1
Method: as §1

[19] = system: U-2940; conditions: U-2940, NHL DLBCL, 24 hours, n = 1
Method: as §1

[20] = system: WSU-NHL; conditions: NHL FL, 24 hours, n = 1
Method: as §1

CO[C@H]1CC[C@H](N2C(=O)CNc3ncc(-c4ccc(C(C)(C)O)nc4)nc32)CC1 [Compound 1, 7-(6-(2-hydroxypropan-2-yl)pyridin-3-yl)-1-((1r,4r)-4-methoxycyclohexyl)-3,4-dihydropyrazino-[2,3-b]pyrazin-2(1H)-one]
CalX (minimum concentration to double caspase 3/7) [1]: 10 | CalX (minimum concentration to double caspase 3/7) [2]: 10 | CalX (minimum concentration to double caspase 3/7) [3]: 0.56 | CalX (minimum concentration to double caspase 3/7) [4]: 0.25 | Apoptotic [5]: N/Y | CalX (minimum concentration to double caspase 3/7) [5]: 9.61 | Apoptotic [6]: N/Y | CalX (minimum concentration to double caspase 3/7) [6]: 5.16 | Apoptotic [7]: N/Y | CalX (minimum concentration to double caspase 3/7) [7]: 7.24 | CalX (minimum concentration to double caspase 3/7) [8]: 0.41 | CalX (minimum concentration to double caspase 3/7) [9]: 0.7 | CalX (minimum concentration to double caspase 3/7) [10]: 1.13 | CalX (minimum concentration to double caspase 3/7) [11]: 0.11 | CalX (minimum concentration to double caspase 3/7) [12]: 10 | Apoptotic [13]: N/Y | CalX (minimum concentration to double caspase 3/7) [13]: 5.15 | CalX (minimum concentration to double caspase 3/7) [14]: 0.59 | CalX (minimum concentration to double caspase 3/7) [15]: 10 | CalX (minimum concentration to double caspase 3/7) [16]: 0.07 | Apoptotic [17]: N/Y | CalX (minimum concentration to double caspase 3/7) [17]: 3.48 | CalX (minimum concentration to double caspase 3/7) [18]: 2.04 | CalX (minimum concentration to double caspase 3/7) [19]: 0.43 | CalX (minimum concentration to double caspase 3/7) [20]: 0.16
